{"source": "patent US20250090554A1", "about": "“A METHOD OF TREATING DEPRESSION BY IMMUNE MODULATION” (MYND LIFE SCIENCES INC., priority 2021, published 2025)", "key": {"[1]": {"system": "ABCF1", "test": "ABCF1 real time RT-PCR in RAW macrophage cell line treated with drugs", "assay_type": "cell-based, murine", "procedure": "(§1) FIG. 1 illustrates that Escitalopram induces ABCF1 in a Macrophage cell line: RAW macrophages were plated at 1×10^5 cells/well and cultured for 2 days. The cells were incubated with 0.3 mM Escitalopram for 1 hour, and then harvested for total RNA, which was extracted for real time RT-PCR specific for ABCF1 and IL-4. CT values were normalized with CT value for the housekeeping gene from the DMSO control. The difference in the expression after drug treatment is consistent with polarization towards an M2-like phenotype (data were consistent in 3 separate experiments).\nFIG. 2 illustrates the effect of psylocibin, psylocin and their analogs on ABCF1 transcription in a macrophage cell line. Briefly, the Macrophage cell line RAW264.7 (ATCC) were grown to 80% confluency in growth media (DMEM+10% FBS+glutamine). Dilutions of psylocibin, psylocin and their analogs were made at desired final concentrations for a Dose response experiment. The concentrations' used for this experiment are: 10 nM, 100 nM, 500 nM for Psilocin, Psylocibin, 4-Acetoxy-N, N-dimthyltryptamine, O-Acetyl Psilocin Fumerate, and 4-acetoxyindole. The cells were incubated for 2 hours and then harvested for total RNA, which was extracted for real time RT-PCR specific for ABCF1. Untreated cells were used as negative control and Escitalopram at 0.3 mM was used as a positive control to activate ABCF1 expression for all the experiments. ES=escitalopram; PSYB=Psylocibin; PSIC=Psilocin; DMT=4-Acetoxy-N, N-dimthyltryptamine; APF=O-Acetyl Psilocin Fumerate, and AOI=4-acetoxyindole.\n• 1. Macrophage cell line RAW264.7 (ATCC) were grown to 80% confluency in growth media (DMEM+10% FBS+glutamine). • 2. Dilutions of the drugs were made at desired final concentrations for a Dose response experiment. The concentrations' used for this experiment are: 10 nM, 100 nM, 500 nM for Psilocin, Psylocibin, 4-Acetoxy-N, N-dimthyltryptamine, O-Acetyl Psilocin Fumerate, and 4-acetoxyindole. • 3. A time course response experiment was done for the above stated drugs at concentrations mentioned above (10 nM, 100 nM, 500 nM). The time points chosen were 0, 30 mins, 2 hours and 24 hour. • 4. Untreated cells were used as negative control and Escitalopram at 0.3 mM was used as a positive control to activate ABCF1 expression for all the experiments. Analysis by qPCR:\n• 1. Post treatment with drugs at different time points, the reaction was stopped by removing the media with the drug. Cells were then collected and RNA was isolated from these. • 2. After checking the quality of the RNA, cDNA was generated and qPCR was run with ABCF1 primers as the target gene and GAPDH as the house keeping gene. • 3. Normalized against the expression level of GAPDH, the fold change expression level of ABCF1 was calculated and tabulated for all treatment conditions."}, "[2]": {"system": "IL-4", "test": "IL-4 real time RT-PCR in RAW macrophages treated with Escitalopram", "assay_type": "cell-based, murine", "conditions": "FIG. 1: 0.3 mM Escitalopram for 1 hour", "procedure": "as §1"}, "[3]": {"system": "ABCF1", "test": "ABCF1 expression in bone marrow after in vivo drug treatment of mice", "design": "species or system mice (C57Bl/6)", "conditions": "for ABCF1 expression levels increased in bone marrow (fold): 30 mins treatment in vivo", "procedure": "• Species strain: C57Bl/6 • Tissues collected: Brain, Bone marrow, PBMC • Drug treatment: • a. 30 minutes Drug treatment (PBS control, Escitalopram 50 mg/kg, Psilocybin 25 mg/kg) • b. 30 minutes Drug treatment after 30 minutes LPS stimulation (PBS control, Escitalopram 50 mg/kg, O-Acetyl Psilocin Fumarate (APF) 25 mg/kg, 4-AcetoxyIndole (AOI) 2.5 mg/kg, 4-AcO-DET (AODET) 25 mg/kg) • Method: • Weighed and injected the drug into the mice by Intraperitoneal injection. • Euthanized the mice 30 minutes after injections with isoflurane and CO2 • Post cervical Dislocation performed cardiac puncture to collect the whole blood from mice. • Opened the cephalic bone to collect the whole brain. • Removed the skin and muscles, took out both femur and tibia for bone marrow collection. • Tissue process procedures: • Brain—flash frozen and stored hemisphere in-80 for further molecular experiments and sent another part with buffer for sequencing. The frozen Brains were Dounce-homogenized. […]"}, "[4]": {"system": "ABCF1", "test": "ABCF1 expression in whole brain after in vivo drug treatment of mice", "design": "species or system mice (C57Bl/6)", "conditions": "Escitalopram 50 mg/kg, psilocybin 25 mg/kg, 30 minutes"}, "[5]": {"system": "ABCF1", "conditions": "peripheral blood mononuclear cells of patients; cited from earlier work"}}}
{"smiles": "CCCCCc1cc(O)c(C/C=C(\\C)CCC=C(C)C)c(O)c1", "note": "[Cannabigerol]", "values": [{"measurement": "ABCF1 expression levels increased (fold)", "setting": "[1]; RAW264.7 cells, post 2 hr treatment with 100 nM", "value": 8, "unit": "folds"}]}
{"smiles": "CN(C)CCC[C@@]1(c2ccc(F)cc2)OCc2cc(C#N)ccc21", "note": "[Escitalopram]", "values": [{"measurement": "ABCF1 expression in RAW macrophages cell cultures", "setting": "[1]; Escitalopram 0.6 nM, Psilocybin 500 nM, 2 hrs, vs untreated control", "value": "induces ABCF1 expression"}, {"measurement": "ABCF1 induction in a macrophage cell line", "setting": "[1]; RAW macrophages, 0.3 mM Escitalopram, 1 hour", "value": "induces ABCF1"}, {"measurement": "ABCF1 induction (fold) in the macrophage cell line", "setting": "[1]; RAW macrophages, FIG. 1: 0.3 mM Escitalopram for 1 hour", "value": "approximately 20 fold"}, {"measurement": "IL-4 induction (fold) in the macrophage cell line", "setting": "[2]", "value": "approximately 5 fold"}, {"measurement": "ABCF1 expression in the bone marrow", "setting": "[3]; Escitalopram 50 mg/kg, psilocybin 25 mg/kg, mice, 30 minutes", "value": "induces ABCF1 expression"}, {"measurement": "ABCF1 expression levels increased in bone marrow (fold)", "setting": "[3]", "value": 6, "unit": "folds"}, {"measurement": "ABCF1 expression in the whole brain", "setting": "[4]", "value": "induce ABCF1 expression"}, {"measurement": "ABCF1 transcription in PBMCs of patients responding to treatment", "setting": "[5]", "value": "increased the transcription"}]}
{"smiles": "CN(C)CCc1c[nH]c2cccc(OP(=O)(O)O)c12", "note": "[Psilocybin, [3-(2-Dimethylaminoethyl)-1H-indol-4-yl] dihydrogen phosphate]", "values": [{"measurement": "ABCF1 expression levels increased in bone marrow (fold)", "setting": "[3]", "value": 2, "unit": "folds"}]}
